Values after ≈ are worked out from the molar mass of the structure shown.
What was measured:
Type in all cases: functional
[1] = tested on: Klebsiella pneumoniae; experiment: Antibacterial activity against Klebsiella pneumoniae assessed as inhibition of bacterial growth by standard broth microdilution method
[2] = tested on: Staphylococcus aureus; experiment: Antibacterial activity against Staphylococcus aureus MTCC96 assessed as inhibition of bacterial growth by standard broth microdilution method
[3] = tested on: Pseudomonas aeruginosa; experiment: Antibacterial activity against Pseudomonas aeruginosa assessed as inhibition of bacterial growth by standard broth microdilution method
[4] = tested on: Bacillus subtilis; experiment: Antibacterial activity against Bacillus subtilis MTCC121 assessed as inhibition of bacterial growth by standard broth microdilution method
[5] = tested on: Staphylococcus epidermidis; experiment: Antibacterial activity against Staphylococcus epidermidis MTCC435 assessed as inhibition of bacterial growth by standard broth microdilution method
[6] = tested on: Escherichia coli; experiment: Antibacterial activity against Escherichia coli MTCC739 assessed as inhibition of bacterial growth by standard broth microdilution method
[7] = tested on: Bacillus subtilis; experiment: Potency index, ratio of ciprofloxacin MIC to test compound MIC for antibacterial activity against Bacillus subtilis MTCC121
[8] = tested on: Staphylococcus epidermidis; experiment: Potency index, ratio of ciprofloxacin MIC to test compound MIC for antibacterial activity against Staphylococcus epidermidis MTCC435
[9] = tested on: Staphylococcus aureus; experiment: Antibiofilm activity against Staphylococcus aureus MTCC96 assessed as inhibition of biofilm formation
[10] = tested on: Bacillus subtilis; experiment: Antibiofilm activity against Bacillus subtilis MTCC121 assessed as inhibition of biofilm formation
[11] = tested on: Pseudomonas aeruginosa; experiment: Antibiofilm activity against Pseudomonas aeruginosa assessed as inhibition of biofilm formation
[12] = tested on: Escherichia coli; experiment: Antibiofilm activity against Escherichia coli MTCC739 assessed as inhibition of biofilm formation
[13] = tested on: Staphylococcus epidermidis; experiment: Antibiofilm activity against Staphylococcus epidermidis MTCC435 assessed as inhibition of biofilm formation

| MIC [1] | MIC [2] | MIC [3] | MIC [4] | MIC [5] | MIC [6] | Compound | Ratio [7] | Ratio [8] | BIC [9] | BIC [10] | BIC [11] | BIC [12] | BIC [13] |
| --- | --- | --- | --- | --- | --- | --- | --- | --- | --- | --- | --- | --- | --- |
| > 50 µg/mL | > 50 µg/mL | > 50 µg/mL | 50 µg/mL (≈ 169 µM) | > 50 µg/mL | > 50 µg/mL | COc1ccc(-c2nnn3c2-c2ccccc2SC3)cc1 |  |  |  |  |  |  |  |
| 50 µg/mL (≈ 151 µM) | 6.25 µg/mL (≈ 18.8 µM) | 25 µg/mL (≈ 75.4 µM) | 3.12 µg/mL (≈ 9.4 µM) | 3.12 µg/mL (≈ 9.4 µM) | 50 µg/mL (≈ 151 µM) | O=S1(=O)Cn2nnc(-c3ccccc3Cl)c2-c2ccccc21 | 2 | 2 | 5.88 µg/mL | 4.15 µg/mL | 22.8 µg/mL | 48 µg/mL | 2.94 µg/mL |
| 50 µg/mL (≈ 179 µM) | > 50 µg/mL | 50 µg/mL (≈ 179 µM) | 50 µg/mL (≈ 179 µM) | 50 µg/mL (≈ 179 µM) | > 50 µg/mL | Cc1ccc(-c2nnn3c2-c2ccccc2SC3)cc1 |  |  |  |  |  |  |  |
| 50 µg/mL (≈ 161 µM) | 50 µg/mL (≈ 161 µM) | 50 µg/mL (≈ 161 µM) | 25 µg/mL (≈ 80.3 µM) | 25 µg/mL (≈ 80.3 µM) | 25 µg/mL (≈ 80.3 µM) | Cc1ccc(-c2nnn3c2-c2ccccc2S(=O)(=O)C3)cc1 |  |  |  |  |  |  |  |
| 3.12 µg/mL (≈ 9.42 µM) | 3.12 µg/mL (≈ 9.42 µM) | 1.56 µg/mL (≈ 4.71 µM) | 6.25 µg/mL (≈ 18.9 µM) | 6.25 µg/mL (≈ 18.9 µM) |  | O=C(O)c1cn(C2CC2)c2cc(N3CCNCC3)c(F)cc2c1=O [CIPROFLOXACIN] |  |  | 4.88 µg/mL | 5.5 µg/mL | 2.75 µg/mL | 4.29 µg/mL | 2.24 µg/mL |
| 50 µg/mL (≈ 133 µM) | 25 µg/mL (≈ 66.4 µM) | 25 µg/mL (≈ 66.4 µM) | 12.5 µg/mL (≈ 33.2 µM) | 50 µg/mL (≈ 133 µM) | 6.25 µg/mL (≈ 16.6 µM) | O=S1(=O)Cn2nnc(-c3ccc(Br)cc3)c2-c2ccccc21 |  |  | 28.1 µg/mL | 23.9 µg/mL | 20.4 µg/mL | 10.9 µg/mL | 57.6 µg/mL |
| > 50 µg/mL | 6.25 µg/mL (≈ 20.8 µM) | 50 µg/mL (≈ 167 µM) | 12.5 µg/mL (≈ 41.7 µM) | 25 µg/mL (≈ 83.4 µM) | > 50 µg/mL | Clc1ccccc1-c1nnn2c1-c1ccccc1SC2 |  |  | 10.7 µg/mL | 26.1 µg/mL | 48 µg/mL |  | 21.2 µg/mL |
| > 50 µg/mL | 25 µg/mL (≈ 84.6 µM) | > 50 µg/mL | 25 µg/mL (≈ 84.6 µM) | 50 µg/mL (≈ 169 µM) | 50 µg/mL (≈ 169 µM) | COc1cccc(-c2nnn3c2-c2ccccc2SC3)c1 |  |  |  |  |  |  |  |
| > 50 µg/mL | 50 µg/mL (≈ 153 µM) | > 50 µg/mL | 25 µg/mL (≈ 76.4 µM) | 25 µg/mL (≈ 76.4 µM) | > 50 µg/mL | COc1ccc(-c2nnn3c2-c2ccccc2S(=O)(=O)C3)cc1 |  |  |  |  |  |  |  |
| > 50 µg/mL | > 50 µg/mL | > 50 µg/mL | > 50 µg/mL | > 50 µg/mL | > 50 µg/mL | Cc1cccc(-c2nnn3c2-c2ccccc2SC3)c1 |  |  |  |  |  |  |  |
| > 50 µg/mL | 25 µg/mL (≈ 84.1 µM) | > 50 µg/mL | 50 µg/mL (≈ 168 µM) | 25 µg/mL (≈ 84.1 µM) | > 50 µg/mL | O=S1(=O)Cn2nnc(-c3ccccc3)c2-c2ccccc21 |  |  |  |  |  |  |  |
| 50 µg/mL (≈ 145 µM) | 50 µg/mL (≈ 145 µM) | > 50 µg/mL | > 50 µg/mL | > 50 µg/mL | 25 µg/mL (≈ 72.6 µM) | Brc1ccc(-c2nnn3c2-c2ccccc2SC3)cc1 |  |  |  |  |  |  |  |
| 25 µg/mL (≈ 76.4 µM) | 6.25 µg/mL (≈ 19.1 µM) | 50 µg/mL (≈ 153 µM) | 6.25 µg/mL (≈ 19.1 µM) | 12.5 µg/mL (≈ 38.2 µM) | 50 µg/mL (≈ 153 µM) | COc1cccc(-c2nnn3c2-c2ccccc2S(=O)(=O)C3)c1 |  |  | 4.2 µg/mL | 3.5 µg/mL | 47.3 µg/mL | 52.3 µg/mL | 24.8 µg/mL |
| > 50 µg/mL | > 50 µg/mL | > 50 µg/mL | 50 µg/mL (≈ 161 µM) | 50 µg/mL (≈ 161 µM) | > 50 µg/mL | Cc1cccc(-c2nnn3c2-c2ccccc2S(=O)(=O)C3)c1 |  |  |  |  |  |  |  |
